# Measured values: paper PMC4129416, “YLT192, a Novel, Orally Active Bioavailable Inhibitor of VEGFR2 Signaling with Potent Antiangiogenic Activity and Antitumor Efficacy in Preclinical Models” (Scientific Reports, 2014)
# Key:
# [1] = Acute toxicity test; assay type: in vivo; details: rats
# Method: All the HCT116 model mice were sacrificed after 24 days of treatment.
# Acute toxicity test was done to investigate the safety profiles of YLT192 on rats. Briefly, 7–8 week old female and male rats (n = 10, respectively) were orally administrated with YLT192 at 3000 mg/kg. Then clinical symptoms of the rats including mortality, body weight and gross findings were observed once daily for 14 days. On day 14, the rats were sacrificed and examined by necropsy.
# [2] = test system: U251 cells; test: Western blot of oncogenic signaling pathways; assay type: cell-based, human; details: 48 h
# Method: (§1) Figure 4 Inhibitory effects of YLT192 on tumor cells. (A) YLT192 inhibited U251 and HCT116 cells proliferation. The EdU incorporation assay was conducted on U251 and HCT116 cells after treated with YLT192 for 24 hours. The EdU-positive (red fluorescent staining) cells and Hoechst staining (blue fluorescent staining) cells represented proliferating and total cells in the fluorescent images, respectively (100×). Quantification was shown on the right panels. (B) YLT192 induced apoptosis of HCT116 cells. HCT116 cells were treated with YLT192 or vehicle for 48 hours followed by flow cytometric analysis of annexin V-FITC and PI staining. […] Typical apoptosis-related proteins caspase 3 and Bax were detected by western blot. […] U251 and HCT116 cells were treated with YLT192 or vehicle for 48 hours and the expression of protein in different signaling pathways were detected by western blot with specific antibodies. […]
# (§2) To gain further insight into the molecular mechanism of the inhibitory effects of YLT192 on tumor cells we evaluated the expression of p44/42 MAPK, STAT3, AKT, and mammalian target of rapamycin (mTOR) in U251 and HCT116 cells 48 h after treatment.
# (§3) Supplementary Figure S8. […] U251 and HCT116 cells were treated with YLT192 or vehicle for 48 hours and the expression of protein in different signaling pathways were detected by western blot with specific antibodies. […]
# [3] = test system: HCT116 cells; test: Western blot of oncogenic signaling pathways; assay type: cell-based, human; details: 48 h
# Method: as §1, §2, §3
# [4] = test system: U251 tumors; test: Subcutaneous xenograft model; assay type: in vivo; details: 100 mg/kg oral once daily; U251 xenograft in nude mice; vs vehicle
# Method: (§4) Figure 5 Anti-tumor activities of YLT192 in vivo. (A) U251 and HCT116 tumor-bearing mice were treated orally with YLT192 at 25, 50 and 100 mg/kg or vehicle daily, respectively. […] (B) Body weight changes in YLT192 and vehicle treated mice. […] For A and B, data are means ± SD. (C) and (D), YLT192 inhibited tumor cell proliferation in HCT116 tumor tissues in vivo. Mice bearing HCT116 tumor xenograft were treated with YLT192 at 50 and 100 mg/kg or vehicle and sacrificed at the end of the experiment. The tumor tissues were removed for further immunohistochemistry analysis using anti-Ki67 (C) and anti-p-p44/42 MAPK antibodies (D). (E) YLT192 induced tumor cell apoptosis in HCT116 tumor in vivo. Apoptosis was measured by TUNEL staining (n = 6 mice per group). Scale bars represent 100 μm.
# (§5) All animal experiments were approved and conducted by the Institutional Animal Care and Treatment Committee of Sichuan University in China (Permit Number: 20121205). […] Tumor growth and body weight was measured every three days during the treatment. Tumor volumes were calculated using the formula as follow: volume (mm^3) = 0.5 × length (mm) × width (mm)^2. Growth inhibition was calculated from the start of treatment by comparison of the mean change in tumor volume for vehicle and treated group as before.
# [5] = test system: HCT116 tumors; test: Subcutaneous xenograft model; assay type: in vivo; details: 100 mg/kg oral once daily; HCT116 xenograft in nude mice; vs vehicle
# Method: as §4, §5
# [6] = test system: Hep G2; test: Inhibition of tumor cell growth; assay type: cell-based; details: HepG2; Hep G2, human hepatocellular carcinoma; 48 hour treatment; means ± SD, n=3
# Method: (§6) The proliferative inhibitory ability of YLT192 on tumor cells was investigated. […] Inhibition of cell proliferation is a possible approach for cancer treatment. EdU incorporation assay was performed to investigate the anti-proliferative effects of YLT192 against U251 and HCT116 cells.
# (§7) treatment with YLT192. Data are means ± SD, n=3.
# (§8) cell line cell type IC50(μM) […]
# [7] = test system: BxPC-3; test: Inhibition of tumor cell growth; assay type: cell-based; details: BxPC-3, human pancreatic cancer; 48 hour treatment; means ± SD, n=3
# Method: as §6, §7, §8
# [8] = test system: PANC-1; test: Inhibition of tumor cell growth; assay type: cell-based; details: PANC-1, human pancreatic cancer; 48 hour treatment; means ± SD, n=3
# Method: as §6, §7, §8
structure (smiles),measurement,setting,value
CNC(=O)c1cc(Oc2ccc(NC(=O)c3cccc(OC)c3)cc2)ccn1 [YLT192],NOAEL at 14 days,"[1]; both sexes, rat, in vivo, single oral 3000 mg/kg, 14 days observation, read-out: No Observed Adverse Effect Level (NOAEL)",> 3000 mg/kg
same,"mortality, clinical signs, and body weight","[1]; oral 3000 mg/kg, 14 days",no obvious changes were observed
same,"expression of phosphorylated p44/42 MAPK, STAT3, AKT, and mTOR",[2],dramatically decreased
same,"expression of phosphorylated p44/42 MAPK, STAT3, AKT, and mTOR",[3],dramatically decreased
same,tumor volume inhibition,[4],60%
same,tumor volume inhibition,[5],61%
same,IC50,[6],7.9 ± 0.5 µM
same,IC50,[7],8.2 ± 0.6 µM
same,IC50,[8],9.8 ± 1.9 µM
